From patent US7091354B2, “Processes for the preparation of peripheral opioid antagonist compounds and intermediates thereto” (Adolor Corporation, priority 2002, dated 2006)

Compound	melting point [°C]
C=C(C(=O)OC)[C@@H](O)c1ccccc1 (single isomer, unassigned)	48
C=C(C(=O)OC)C(O)c1ccccc1 (single isomer, unassigned)	51
